The subject of assay [1] is 5LO (Ser523 phosphorylated 5LO). In words: immunoblotting of total 5LO and P-5LO in rat myocardium (whole cell homogenate). The format is in vivo. Conditions: for myocardial levels of Ser523 phosphorylated 5LO (P-5LO) / myocardial total 5LO levels: whole cell homogenate, PIO or ATV 10 mg/kg/d 3 days, H-89 20 mg/kg i.p. As to the method: Rats received: 1) PIO (10 mg/kg/d); 2) ATV (10 mg/kg/d); 3) PIO (10 mg/kg/d)+H89 (20 mg/kg); 4) ATV (10 mg/kg/d)+H89 (20 mg/kg); 5) H89 (20 mg/kg) or 6) water alone (control). PIO and ATV were suspended in water and administered by gastric gavage once daily for 3 days; H-89 was dissolved in DMSO (final concentration 5% v/v) and injected intraperitoneally on the third day. Rats in groups 5 and 6 received water by gastric gavage once daily for 3 days. Rats in groups 1, 2 and 6 received intraperitoneal inkection of DMSO 5%. Sixteen hours after the injection, rats were euthanized and the hearts explanted for further analyses. In another experiment, rats received 3-day pretreatment with: 1) water (sham); 2) PIO (10 mg/kg/d); 3) ATV (10 mg/kg/d); 4) PIO (10 mg/kg/d)+ATV (10 mg/kg/d); or 5) LPS (10 mg/kg).
PIO and ATV were administered by oral gavage once daily as above; LPS was administered intravenously. In addition, rats in groups 1-4 received intravenous saline on the […], whereas rats in group 1 and 5 received water by gastric gavage once daily for 3 days and the LPS injection on the third day. Sixteen hours after the injection, rats were euthanized and the hearts explanted for further analyses.
The hearts were rapidly explanted, rinsed in cold PBS (pH 7.4), containing 0.16 mg/ml heparin to remove red blood cells and clots, frozen in liquid nitrogen and stored at −70° C. Myocardial samples from the anterior left ventricular wall were homogenized in RIPA lysis buffer (Santa Cruz Biotechnology, Santa Cruz, Calif.) and centrifuged at 14,000 rpm for 15 min at 4° C. The supernatant was collected and the total protein concentration was determined using the Lowry protein assay. […] The protein samples with loading buffer were run in 4-20% Tri-HCl Ready Gel at a 100V for 2 h until the desired molecular weight bands were separated. After electrophoresis, the gel was equilibrated in transfer buffer (25 mM Tris, 193 mM glycine, 0.1% SDS and 10% methanol) and the proteins were transferred to nitrocellulose membrane. The protein signals were quantified by an image-scanning-densitometer and the strength of each protein signal was normalized to the corresponding b-actin stain signal. Data are expressed as a ratio between the protein and the corresponding b-actin signal density.

A further assay concerns 5LO. In words: immunoblotting of 5LO in cytosolic, membranous and nuclear fractions of myocardial cells. Particulars: rat myocardium. In kind it is in vivo. How it is done:
Rats received: 1) […] (20 mg/kg) or 6) water alone (control). PIO and ATV were suspended in water and administered by gastric gavage once daily for 3 days; H-89 was dissolved in DMSO (final concentration 5% v/v) and injected intraperitoneally on the third day. Rats in groups 5 and 6 received water by gastric gavage once daily for 3 days. Rats in groups 1, 2 and 6 received intraperitoneal inkection of DMSO 5%. Sixteen hours after the injection, rats were euthanized and the hearts explanted for further analyses. In another experiment, rats received 3-day pretreatment with: 1) […]); or 5) LPS (10 mg/kg). Myocardial samples (0.25 g) were homogenized, mixed with Buffer A Mix [Hepes (pH 7.9) 10 mM, KCl 10 mM, EDTA 10 mM, DTT 100 mM, protease inhibitor cocktail, and IGEPAL 10%, (Sigma, St Lois, Mo.)], homogenized again and incubated for 15 min on ice, and centrifuged at 850×g for 10 min at 4° C. The supernatant was discharged, Buffer A Mix was added again and the samples incubated for an additional 15 min on ice, and centrifuged at 15,000×g for 3 min at 40 C. The supernatant contains the cytosolic fraction was collected. The pellet was resuspended in 150 μl of Buffer B Mix [Hepes (pH 7.9) 20 mM, NaCl 0.4M, EDTA 1 mM, glycerol 10%, protease inhibitor cocktail, and IGEPAL 10%], the tubes were shaked on ice at 200 rpm for 2 h, centrifuged at 15,000×g for 5 min at 4° C., and supernatants were collected as the nuclear fraction. […] The hearts were rapidly explanted, rinsed in cold PBS (pH 7.4), containing 0.16 mg/ml heparin to remove red blood cells and clots, frozen in liquid nitrogen and stored at -70° C. Myocardial samples from the anterior left ventricular wall were homogenized in RIPA lysis buffer (Santa Cruz Biotechnology, Santa Cruz, Calif.) and centrifuged at 14,000 rpm for 15 min at 4° C. The supernatant was collected and the total protein concentration was determined using the Lowry protein assay. […] The protein samples with loading buffer were run in 4-20% Tri-HCl Ready Gel at a 100V for 2 h until the desired molecular weight bands were separated. After electrophoresis, the gel was equilibrated in transfer buffer (25 mM Tris, 193 mM glycine, 0.1% SDS and 10% methanol) and the proteins were transferred to nitrocellulose membrane. The protein signals were quantified by an image-scanning-densitometer and the strength of each protein signal was normalized to the corresponding b-actin stain signal. Data are expressed as a ratio between the protein and the corresponding b-actin signal density.

Entries after “also recorded” stand apart in the source; their conditions may differ.

`CC(C)c1c(C(=O)Nc2ccccc2)c(-c2ccccc2)c(-c2ccc(F)cc2)n1CCC(O)CC(O)CC(=O)O` (stereo not shown) [ATV, 7-[2-(4-fluorophenyl)-5-(1-methylethyl)-3-phenyl-4-(phenylcarbamoyl)-1H-pyrrol-1-yl]-3,5-dihydroxy-heptanoic acid]: in assay [1] (PIO, ATV 10 mg/kg/d, LPS 10 mg/kg i.v.), the “5LO phosphorylation, PIO and ATV compared with LPS” value is given as “significantly greater increase”. Further, in assay [1], the “myocardial levels of Ser523 phosphorylated 5LO (P-5LO)” value is given as “augment; also recorded: increased” and the “myocardial total 5LO levels” value is “without detectable change; also recorded: did not affect”. For the same compound, in the assay with 5LO, the “5LO levels in the cytosolic fraction” value is “small, yet significant increase” and the “5LO levels in the membranous fraction” value is “no detectable effect”.
For `O=S(=O)(NCCNC/C=C/c1ccc(Br)cc1)c1cccc2cnccc12` [H-89], the “effect on the increase in P-5LO by PIO and ATV” value in assay [1] (H-89 20 mg/kg i.p. with PIO or ATV 10 mg/kg/d) is reported as “completely blocked”. In addition, in assay [1], the “myocardial levels of Ser523 phosphorylated 5LO (P-5LO)” value is listed as “did not affect” and the “myocardial total 5LO levels” value is “did not affect”. In the assay with 5LO, the “5LO levels in the cytosolic fraction” value is recorded as “no significant effect” and the “5LO levels in the membranous fraction” value is reported as “no significant effect”.
